The numbers were not newly measured in the CATMoS acute toxicity set (Mansouri et al. 2021), which cites them from elsewhere.

Broadly, the LD50 is the dose expected to kill half of the subjects tested.

Where “and” joins values, the source holds several entries; their conditions need not be identical. Equal entries are not always repeated.

The data set is described as follows: rat acute oral toxicity. Conditions: in vivo.
As to `Cc1onc(-c2c(Cl)cccc2Cl)c1C(=O)N[C@@H]1C(=O)N2[C@@H]1SC(C)(C)[C@@H]2C(=O)O`, the LD50 is 3580 mg/kg.

As for `CN1CCCCC1C(c1ccccc1)c1cccc(O)c1` (configuration not stated), the 50% lethal dose (LD50) is 1 mg/kg.

For `OC[C@H]1CO[C@@H](Cc2ccccc2)O1`, the LD50 was 1720 mg/kg.

For `CC(NCCNC(C)c1ccccc1)c1ccccc1` (configuration not stated), the 50% lethal dose (LD50) is 1290 mg/kg.

As for `Cc1cccc(NC(=S)N(C)C)c1`, the 50% lethal dose (LD50) is 2200 mg/kg.

Turning to `CCc1cnc(C(=O)O)c(C(=O)O)c1`, the 50% lethal dose (LD50) is 3350 mg/kg.

Consider `Cc1ccc(CN(C)N=O)cc1`, for which the LD50 was 400 mg/kg.

With `NC(=O)c1ccc(Cl)c(N)c1`, the LD50 is 900 mg/kg.

With `CC(C)N(Cc1ccccc1)C(=O)C(C)(C)C`, the LD50 was 6000 mg/kg.

`CCCCCCCCOP(OCC(CC)CCCC)Oc1ccccc1` (configuration not stated): the LD50 was 7000 mg/kg.

Consider `O=C(O)c1cc(C(=O)O)cc(S(=O)(=O)O)c1`, for which the 50% lethal dose (LD50) was 2600 mg/kg and 6450 mg/kg.

Consider `Cc1cc(OC(=O)N(C)C)nn1C(=O)N(C)C`, for which the LD50 is 25 mg/kg.

As to `C[N+](C)(N)CCBr`, the 50% lethal dose (LD50) was 3200 mg/kg.

With `CC(C)C1NC(=O)c2ccccc2O1` (configuration not stated), the 50% lethal dose (LD50) was 1850 mg/kg.

Turning to `CCCN(CCC)N=O`, the LD50 is 480 mg/kg.

Take `CC(=O)Oc1ccccc1C=CC(=O)O`: the LD50 is 3150 mg/kg.

For the compound `S=C=Nc1ccc(N=C=S)cc1`, the 50% lethal dose (LD50) was 21 mg/kg.

Regarding `COC(C)(C)CCCC(C)C(C)O` (configuration not stated), the 50% lethal dose (LD50) was 4490 mg/kg.

As to `CC(C)Nc1nc(Cl)nc(NC(C)C)n1`, the LD50 was 3840 mg/kg.

As for `CCOC(=O)Nc1ccco1`, the LD50 is 1980 mg/kg.

`CC(=O)C(N=Nc1ccc(-c2ccc(N=NC(C(C)=O)C(=O)Nc3ccc(C)cc3)c(Cl)c2)cc1Cl)C(=O)Nc1ccc(C)cc1` (configuration not stated): the median lethal dose (LD50) was 2230 mg/kg.

Consider `CC1=Nc2ccc(Cl)cc2S(=O)(=O)N1`, for which the 50% lethal dose (LD50) was 980 mg/kg.

Regarding `Cc1nc2ccccc2[se]1`, the LD50 was 471 mg/kg.

As for `FC(F)(F)c1nc2ccc(-c3ccccc3)cc2[nH]1`, the median lethal dose (LD50) is 69 mg/kg.

In the case of `COc1ccc(C2Sc3ccccc3N(CCN(C)C)C(=O)C2OC(C)=O)cc1` (configuration not stated), the LD50 was 560 mg/kg.

As to `CCCOc1cccc(C)c1N(COCC)C(=O)CCl`, the LD50 was 2600 mg/kg.

In the case of `CCCCOC(C[n+]1ccccc1)c1ccccc1` (configuration not stated), the LD50 was 250 mg/kg.

Turning to `COc1ccc2c3c1O[C@H]1C(=O)CC[C@H]4[C@@H](C2)N(C)CC[C@]314`, the 50% lethal dose (LD50) is 375 mg/kg.

In the case of `C=CCC(C(=O)NC(N)=O)C(C)C` (configuration not stated), the LD50 is 1050 mg/kg.

For the compound `O=C(Cl)C(Cl)Cl`, the 50% lethal dose (LD50) was 2460 mg/kg.

Regarding `S=C(C=Cc1ccc2c(c1)OCO2)N1CCOCC1`, the LD50 is 285 mg/kg.

In the case of `CC(C)CCOC(=O)c1ccccc1`, the LD50 was 6330 mg/kg.

In the case of `Cc1cccc(NC(N)=O)c1`, the LD50 is 1330 mg/kg.

`O=[N+]([O-])c1c(Br)ccc2[nH]c(C(F)(F)F)nc12`: the 50% lethal dose (LD50) is 13.5 mg/kg.

Consider `C=CCN(C)N=O`, for which the median lethal dose (LD50) was 340 mg/kg.

As for `S=C(S)NCCNC(=S)S`, the 50% lethal dose (LD50) is 1850 mg/kg and 2850 mg/kg.

Consider `CCS(=O)CCOP(=O)(OC)OC=C(Cl)Cl` (configuration not stated), for which the LD50 is 110 mg/kg.

As to `O=C1C(Cl)=C(Cl)C(=O)C1=C(Cl)Cl`, the median lethal dose (LD50) was 2300 mg/kg.

On to `CCCNC(=O)c1sc(-c2cc(OC)c(OC)c(OC)c2)nc1C`, for which the median lethal dose (LD50) was 5600 mg/kg.

In the case of `CC1(C)Cc2cccc(OC(=O)NCSc3ccc(C(C)(C)C)cc3)c2O1`, the LD50 was 125 mg/kg.

`CNC(=O)ON=C1SCCOC1(C)C`: the 50% lethal dose (LD50) was 0.6 mg/kg.

As for `CCCCc1ccc2c(S(=O)(=O)O)cc(CCCC)cc2c1`, the LD50 is 1250 mg/kg.

As for `CN(C)c1nc(N(C)C)nc(N(C)C)n1`, the LD50 is 350 mg/kg.

Take `CNC(=O)Oc1ccccc1C1CCCC1`: the LD50 is 187 mg/kg.

On to `COc1c(OP(=S)(OC)OC)cnn(C)c1=O`, for which the LD50 was 2.5 mg/kg.

For `COc1ccc2c(c1)N(CCC1CCCCN1C)c1ccccc1S2` (configuration not stated), the LD50 was 1130 mg/kg.

Consider `CC(C)=CCC(CCN1CCCC1)(C(N)=O)c1cccc2ccccc12` (configuration not stated), for which the LD50 was 71 mg/kg.

Consider `CCCCOc1ccc(OCC(=O)N(CCN(CC)CC)c2cc(OCC)ccc2OCC)cc1`, for which the median lethal dose (LD50) is 2400 mg/kg.

Take `Cc1ccccc1C(C)C`: the LD50 was 2130 mg/kg.

Take `O=C1Nc2ccc(Cl)cc2C(c2ccccc2Cl)=NC1O` (configuration not stated): the LD50 was 4500 mg/kg.

Turning to `COC(CN1CCN(CC(O)C(OC)c2ccccc2)CC1)c1ccccc1` (configuration not stated), the 50% lethal dose (LD50) is 435 mg/kg.

Regarding `CC(C)c1c(C(=O)c2cccnc2)c2ccccc2n1C`, the LD50 is 2400 mg/kg.

As for `Clc1ccc([Si]23OCCN(CCO2)CCO3)cc1`, the 50% lethal dose (LD50) was 520 mg/kg.

Consider `CCCCc1c(OC(=O)c2ccc3c(c2)OCO3)n(-c2ccccc2)n(-c2ccccc2)c1=O`, for which the median lethal dose (LD50) was 1370 mg/kg.

As for `c1ccc(COCc2ccccc2)cc1`, the median lethal dose (LD50) is 2500 mg/kg.

On to `CCOC(=O)C1=CN(C(C)=O)C2CCCC(C)N2C1=O` (configuration not stated), for which the LD50 is 2500 mg/kg.

Take `BrC=Cc1ccccc1`: the LD50 is 1250 mg/kg.

In the case of `O=C(O)C(F)(F)C(F)(F)C(F)(F)C(F)(F)C(F)(F)C(F)(F)C(F)(F)C(F)(F)C(F)(F)F`, the median lethal dose (LD50) was 57 mg/kg.

As to `CC(=O)O[C@H]1C[C@@H]2CC[C@@]1(C)C2(C)C`, the LD50 was 9050 mg/kg.

Take `COc1cc(N)cn[n+]1-c1ccccc1`: the LD50 is 1330 mg/kg.

Take `COC(=O)Nc1nc2cc(C(=O)c3ccccc3)ccc2[nH]1`: the LD50 is 714 mg/kg.

Take `CN(CCn1cnc2c1c(=O)n(C)c(=O)n2C)C1CCCCC1`: the LD50 was 2880 mg/kg.
